# Measured values: the supplement of paper PMC3974653
# Where a name gives a salt, the structure may show the parent alone.
# Tested on: MTT (mouse pheochromocytoma)
# Assay: IC50 of cell viability (ATP content)
# Settings: (24 or 48 h)
# Outline: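 MTT mouse pheochromocytoma cells, cultured overnight at 37°C, 5% CO2 in DMEM with 5% FBS and 1% horse serum, were exposed in white 1536-well plates to library compounds in DMSO at final 0.5 nM to 46 µM (8 concentrations) for 24 or 48 hrs. CellTiter-Glo luminescence was normalised to positive-control (100%) and DMSO (0%) wells. A four-parameter logistic fit gave the IC50.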
row,Compound,IC50 of cell viability [µM]
1,O=C1NCCN1c1ncc([N+](=O)[O-])s1 [Niridazole],> 46
2,Cc1ccc2c(c1)[C@]13CCCC[C@@H]1[C@@H](C2)N(C)CC3 [Dimemorfan phosphate],> 46
3,CC(=O)OC/C=C(C)/C=C/C=C(C)/C=C/C1=C(C)CCCC1(C)C [Retinyl acetate],> 46
4,C/C(=C\C(=O)OCCCCCCCCC(=O)O)C[C@@H]1OC[C@H](C[C@@H]2O[C@H]2[C@@H](C)[C@H](C)O)[C@@H](O)[C@H]1O [MUPIROCIN],> 46
5,C=CCN1CC(C(=O)N(CCCN(C)C)C(=O)NCC)CC2c3cccc4[nH]cc(c34)CC21 (centres undefined) [CABERGOLINE],> 46
6,ClC1=CC=C(C=C1)C(C#N)C2=C(Cl)C=C(C=C2Cl)N3\N=C/C(=O)NC3=O (centres undefined) [DICLAZURIL],> 46
7,CCCCC[C@H](O)/C=C\[C@@H]1[C@H](O)CC(=O)[C@@H]1CCCCCCC(=O)O [Alprostadil],> 46
8,OC(CCN1CCCCC1)(c1ccccc1)c1ccccc1 [pridinol],> 46
9,N=C(N)NC[C@@H]1COC2(CCCCC2)O1 [Guanadrel sulfate],> 46
10,CO/N=C(/C(=O)NC1C(=O)N2C(C(=O)[O-])=C(CSc3nc(=O)c([O-])nn3C)CSC12)c1csc(N)n1.O.O.O.[Na+].[Na+] (centres undefined) [CEFTRIAXONE SODIUM TRIHYDRATE],> 46
11,C=CC1CN2CCC1CC2[C@@H](O)c1ccnc2ccc(OC)cc12 (some centres undefined) [QUINIDINE GLUCONATE],> 46
12,"Oc1noc2c1CCNC2 [4,5,6,7-TETRAHYDROISOXAZOLO[5,4-c]PYRIDIN-3-OL]",> 46
13,C[N+]1(CC2COC(c3ccccc3)(c3ccccc3)O2)CCCCC1 (centres undefined) [DIPHENYLPIPERIDINOMETHYLDIOXOLAN IODIDE (Anacolin)],> 46
14,Nc1nccs1 [AMINOTHIAZOLE],> 46
15,CC(=O)OC1C([N+]2(C)CCCCC2)C[C@H]2C3CC[C@H]4C[C@H](OC(C)=O)C([N+]5(C)CCCCC5)CC4(C)[C@@H]3CCC12C (some centres undefined) [PANCURONIUM],> 46
16,O=C1N\C=N/C2=C1[NH]C=N2 [HYPOXANTHINE],> 46
17,CC(=O)NC(CC(C)C)C(=O)O (stereo in doubt) [ACETYL-L-LEUCINE],> 46
18,CC1(C)S[C@@H]2[C@H](NC(=O)C(C(=O)Oc3ccc4c(c3)CCC4)c3ccccc3)C(=O)N2[C@H]1C(=O)O (some centres undefined) [Carbenicillin indanyl],> 46
19,O=C(O)/C=C(/CC(=O)O)C(=O)O [TRANS-ACONITIC ACID],> 46
20,N[C@@H](CCC(=O)O)C(=O)O [L-GLUTAMIC ACID],> 46
21,CCCCC1C(=O)N(c2ccccc2)N(c2ccccc2)C1=O [Phenylbutazone],> 46
22,CC(=O)O[C@H]1CC[C@@]2(C)C(=CC[C@H]3[C@@H]4CC[C@H](C(C)=O)[C@@]4(C)CC[C@@H]32)C1 [3BETA-ACETOXY-5-PREGNENE-20-ONE],> 46
23,CCC(N)Cc1c[nH]c2ccccc12 (centres undefined) [ETRYPTAMINUM],> 46

row,Compound,IC50 of cell viability [µM]
1,C#C[C@]1(O)CC[C@H]2[C@@H]3CCC4=CCCC[C@@H]4[C@H]3C(=C)C[C@@]21CC [DESOGESTREL],> 46
2,NCC[C@H](O)C(=O)N[C@@H]1C[C@H](N)[C@@H](O[C@H]2O[C@H](CN)[C@@H](O)[C@H](O)[C@H]2O)[C@H](O)[C@H]1O[C@H]1O[C@H](CO)[C@@H](O)[C@H](N)[C@H]1O [Amikacin sulfate],> 46
3,OCC(O)C(O)C(O)CO (centres undefined) [ARABITOL(D)],> 46
4,C[C@]12CC[C@@H]3c4ccc(O)cc4CC[C@H]3[C@@H]1C[C@H](O)C2O (some centres undefined) [Epiestriol],> 46
5,CC(=O)OCC(=O)[C@@]12OC3(CCCC3)OC1CC4C5CCC/6=C/C(=O)/C=C\[C@@]6(C)[C@]5(F)C(O)C[C@@]24C (some centres undefined) [AMCINONIDE],> 46
6,CCOP(=O)(NC(C)C)Oc1ccc(SC)c(C)c1 (centres undefined) [Fenamiphos],> 46
7,"O=[N+]([O-])c1cc([N+](=O)[O-])c2ccccc2c1 [1,3-Dinitronaphthalene]",> 46
8,CN1CCC(Nc2ncc3ncnc(Nc4ccc(F)c(Cl)c4)c3n2)CC1 [BIBX 1382 dihydrochloride],> 46
9,C[C@H](O)C(=O)Nc1c(I)c(C(=O)NC(CO)CO)c(I)c(C(=O)NC(CO)CO)c1I [Iopamidol],> 46
10,CN1CC(=O)NC1=N [CREATININE],> 46
11,CCCCCCCCCCCCCCCC(=O)O[C@@H]1CC(C)=C(\C=C/C(C)=C\C=C/C(C)=C\C=C\C=C(C)\C=C\C=C(C)\C=C\C2=C(C)C[C@@H](OC(=O)CCCCCCCCCCCCCCC)CC2(C)C)C(C)(C)C1 [PHYSALIEN with TLC],> 46
12,Cc1cc(-n2nc3ccc(Cl)cc3n2)c(O)c(C(C)(C)C)c1 [Bumetrizole],> 46
13,NCCCNCCSP(=O)(O)O [Amifostine],> 46
14,Nc1nc(=O)n([C@@H]2CS[C@H](CO)O2)cc1F [EMTRICITABINE],> 46
15,"CC1[C@H]2Cc3ccc(O)cc3[C@]1(C)CCN2CCc1ccccc1 (single isomer, unassigned; (-)) [(-)-Phenazocine]",> 46
16,O=C1c2ccccc2C(=O)C1c1ccc(F)cc1 [Fluindiona],> 46
17,COC1=CC=C(C=C1O)C/2=C/C(=O)C3=C(O)C=C(O[C@H]4OC(COC5OC(C)C(O)C(O)[C@H]5O)C(O)C(O)C4O)C=C3O2 (some centres undefined) [DIOSMIN],> 46
18,CC[C@@H](CO)NC(=O)[C@H]/1CN(C)[C@@H]2CC3=C[NH]C4=C3C(=CC=C4)\C2=C1 [METHYLERGOMETRINE],> 46
19,Nc1ncnc2c1ncn2CCOCP(=O)(O)O [Adefovir],> 46
20,CN1CCN(CCC(=O)N2c3ccccc3Sc3ccc(C(F)(F)F)cc32)CC1 [Ftormetazine],> 46
21,O.O.O=S([O-])CO.[Na+] [Hydroxymethanesulfinic acid monosodium salt dihydrate],> 46
22,O=C1O[C@H]([C@@H](O)CO)C(O)=C1O [L-Ascorbic acid],> 46

# Next, values leading:
row,IC50 of cell viability [µM],Compound
1,> 46,COc1ccc(C(=O)c2ccccc2O)c(O)c1 [Dioxybenzone]
2,> 46,O=C1CC2(CCCC2)CC(=O)N1CCNCC1COc2ccccc2O1 (centres undefined)
3,> 46,CCN(CC)C(=O)c1ccc(O)c(OC)c1 [Ethamivan]
4,> 46,CC(C)Cc1ccc([C@H](C)C(=O)O)cc1 [Dexibuprofen]
5,> 46,COc1ccc(CN(CCN(C)C)c2ncccn2)cc1.Cl [THONZYLAMINE HYDROCHLORIDE]
6,> 46,COc1ccc2cc(C(C)C(=O)[O-])ccc2c1.[Na+] (stereo in doubt) [(R) -Naproxen sodium salt]
7,> 46,CCCCNc1ccc(C(=O)OCC[NH+](CC)CC)cc1 [Depolipon]
8,> 46,CCCNC(=O)N[S+](=O)([O-])c1ccc(Cl)cc1 [Chlorpropamide]
9,> 46,O=C(O)Cc1cccc2ccccc12 [1-Naphthaleneacetic acid]
10,> 46,CN1CCN(CC1)\C2=N\C3=C(OC4=C2C=C(Cl)C=C4)C=CC=C3.OC(=O)CCC(O)=O [Loxapine succinate]
11,> 46,CN1C(=O)CC[C@H]1c1cccnc1 [(-)-COTININE]
12,> 46,c1cnc(N2CCN(Cc3ccc4c(c3)OCO4)CC2)nc1 [PIRIBEDIL]
13,> 46,COc1ccccc1O [o-methoxyphenol]
14,> 46,COc1ccc(-c2cc(C(F)F)nn2-c2ccc([S+](N)(=O)[O-])cc2)cc1F [DERACOXIB]
15,> 46,COc1cc(C(=O)NS(=O)(=O)c2ccccc2C)ccc1Cc1cn(C)c2ccc(NC(=O)OC3CCCC3)cc12 [Zafirlukast]
16,> 46,CCN1CCC[C@H]1CNC(=O)c1c(OC)ccc(Br)c1OC [REMOXIPRIDE]
17,> 46,N[S+]([O-])(=O)C1=C(Cl)C=C2\N=C(\CSCC3=CC=CC=C3)N[S+]([O-])(=O)C2=C1 [Benzthiazide]
18,> 46,Nc1c2c(nc3ccccc13)CCCC2 [TACRINE]
19,> 46,O=C(NNC[S+](=O)([O-])O)c1ccncc1 [ISONIAZID SODIUM METHANESULFONATE]
20,> 46,"Nc1ccc(N)c([N+](=O)[O-])c1 [2-Nitro-1,4-phenylenediamine]"
21,> 46,CNC(=O)c1ccccc1Sc1ccc2c(/C=C/c3ccccn3)n[nH]c2c1 [Axitinib]
22,> 46,C[C@@H](CNC1CCCCC1)OC(=O)c1ccccc1 [Hexylcaine hydrochloride]
23,> 46,COc1ccc(C(=O)N2CCN(CC(=O)N3CCOCC3)CC2)cc1 [Molracetam]
24,> 46,COC(=O)C(c1ccccc1Cl)N1CCc2sccc2C1 (centres undefined) [CLOPIDOGREL BISULFATE]
25,> 46,O=P(O)(O)C(O)(Cn1ccnc1)P(=O)(O)O [Zoledronic acid]
26,> 46,CCCCC(=O)OC1CCC2C3CCc4cc(O)ccc4C3CC[C@]12C (some centres undefined) [ESTRADIOL VALERATE]
27,> 46,CCC(O)c1ccccc1 (centres undefined) [PHENYLPROPANOL]
28,> 46,C=CCc1ccc(O)c(OC)c1 [Eugenol]
29,> 46,Oc1cn2c(n1)Nc1ccc(Cl)c(Cl)c1C2 [ANAGRELIDE HYDROCHLORIDE]
